Results reported in patent publication US9833497B2, “Human originated EGF domain proteins and use of the same” (CHENGDU SOURCEBIO LIMITED-LIABILITY COMPANY, priority 2013, dated 2017).

Columns and labels:
Type in all cases: cell-based
Citrobacter diversus = experiment: MIC against Gram-negative bacteria: Citrobacter diversus; details: 5×10^5 CFU/mL; for MIC: C. diversus
Method in brief: (§1)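 Two-fold serial dilutions of each purified human EGF domain protein, three replicate wells per level, were combined with bacteria at a final 5×10^5 CFU/mL in LB. Cultures were shaken at 175 rpm, 37° C. The MIC was taken as the minimum concentration preventing growth.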

Moraxella catarrhalis = experiment: MIC against Gram-negative bacteria: Moraxella catarrhalis; details: 5×10^5 CFU/mL; for MIC: M. catarrhalis
Method in brief: as §1

Proteus vulgaris = experiment: MIC against Gram-negative bacteria: Proteus vulgaris; details: 5×10^5 CFU/mL; for MIC: P. vulgaris
Method in brief: as §1

E. coli BL21 = experiment: MIC against Gram-negative bacteria: E. coli BL21; details: 5×10^5 CFU/mL
Method in brief: as §1

E. coli DH5α = experiment: Antibacterial activity: MIC and growth curve against E. coli DH5α in 96-well plate; details: minimal inhibitory concentration against E. coli DH5α; 96-well plate, 5×10^5 CFU/mL, 37° C., judged after 8 h
Method in brief: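 Log-phase bacteria (OD600 ~0.5) resuspended in LB at 5×10^5 CFU/mL, exposed to recombinant protein at 50, 25, 12.5 μg/mL final in triplicate, 37 °C shaking at 175 rpm. OD600 read every 30 min; MIC is lowest concentration showing no growth.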

Serratia marcescens = experiment: MIC against Gram-negative bacteria: Serratia marcescens; details: 5×10^5 CFU/mL; for MIC: S. marcescens
Method in brief: as §1

Klebsiella pneumonia = experiment: MIC against Gram-negative bacteria: Klebsiella pneumonia; details: 5×10^5 CFU/mL; for MIC: K. pneumonia
Method in brief: as §1

Pseudomonas aeruginosa = experiment: MIC against Gram-negative bacteria: Pseudomonas aeruginosa; details: 5×10^5 CFU/mL; for MIC: P. aeruginosa
Method in brief: as §1

Proteus mirabilis = experiment: MIC against Gram-negative bacteria: Proteus mirabilis; details: 5×10^5 CFU/mL; for MIC: P. mirabilis
Method in brief: as §1

Aeromonas hydrophila = experiment: MIC against Gram-negative bacteria: Aeromonas hydrophila; details: 5×10^5 CFU/mL; for MIC: A. hydrophila
Method in brief: as §1

Enterobacter cloacae = experiment: MIC against Gram-negative bacteria: Enterobacter cloacae; details: 5×10^5 CFU/mL; for MIC: E. cloacae
Method in brief: as §1

[1] = Citrobacter diversus, 96-well plate, 37° C., 10 h
[2] = Moraxella catarrhalis, 96-well plate, 37° C., 10 h
[3] = Proteus vulgaris, 96-well plate, 37° C., 10 h
[4] = E. coli BL21, 96-well plate, 37° C., 10 h
[5] = Serratia marcescens, 96-well plate, 37° C., 10 h
[6] = Klebsiella pneumonia, 96-well plate, 37° C., 10 h
[7] = Pseudomonas aeruginosa, 96-well plate, 37° C., 10 h
[8] = Proteus mirabilis, 96-well plate, 37° C., 10 h
[9] = Aeromonas hydrophila, 96-well plate, 37° C., 10 h
[10] = Enterobacter cloacae, 96-well plate, 37° C., 10 h
[11] = Citrobacter diversus, 10 h cultivation at 37° C.
[12] = Moraxella catarrhalis, 10 h cultivation at 37° C.
[13] = Proteus vulgaris, 10 h cultivation at 37° C.
[14] = E. coli BL21, 10 h cultivation at 37° C.
[15] = Serratia marcescens, 10 h cultivation at 37° C.
[16] = Klebsiella pneumonia, 10 h cultivation at 37° C.
[17] = Pseudomonas aeruginosa, 10 h cultivation at 37° C.
[18] = Proteus mirabilis, 10 h cultivation at 37° C.
[19] = Aeromonas hydrophila, 10 h cultivation at 37° C.
[20] = Enterobacter cloacae, 10 h cultivation at 37° C.
[21] = 10 h cultivation at 37° C., two-fold serial dilution

PRT35 (AMDLCARRLLDPCEHQCDPETGRREHRAAGECLCYEGYMKDPVHKHLCI; listed as Homo sapiens)
MIC (μg/mL) C. diversus (Citrobacter diversus; [1]): 12.5 µg/mL | MIC (μg/mL) M. catarrhalis (Moraxella catarrhalis; [2]): 50 µg/mL | MIC (μg/mL) P. vulgaris (Proteus vulgaris; [3]): 25 µg/mL | MIC (μg/mL) E. coli BL21 (E. coli BL21; [4]): 50 µg/mL | MIC (E. coli DH5α): 12.5 µg/mL | MIC (μg/mL) S. marcescens (Serratia marcescens; [5]): 12.5 µg/mL | MIC (μg/mL) K. pneumonia (Klebsiella pneumonia; [6]): 12.5 µg/mL | MIC (μg/mL) P. aeruginosa (Pseudomonas aeruginosa; [7]): 25 µg/mL | MIC (μg/mL) P. mirabilis (Proteus mirabilis; [8]): 12.5 µg/mL | MIC (μg/mL) A. hydrophila (Aeromonas hydrophila; [9]): 25 µg/mL | MIC (μg/mL) E. cloacae (Enterobacter cloacae; [10]): 50 µg/mL

PRT576 (CTCNLLGTNPQQCPSPDQCHCDPSSGQCPCLPNVQGPSCDRCAPNFWNLTSGHGCQP; listed as Homo sapiens)
MIC against C. diversus (Citrobacter diversus; 96-well plate, 37° C., 10 h): 12.5 µg/mL | MIC against M. catarrhalis (Moraxella catarrhalis; 96-well plate, 37° C., 10 h): 50 µg/mL | MIC against P. vulgaris (Proteus vulgaris; 96-well plate, 37° C., 10 h): 50 µg/mL | MIC against E. coli BL21 (E. coli BL21; 96-well plate, 37° C., 10 h): 12.5 µg/mL | MIC (E. coli DH5α): 12.5 µg/mL | MIC against S. marcescens (Serratia marcescens; 96-well plate, 37° C., 10 h): 25 µg/mL | MIC against K. pneumonia (Klebsiella pneumonia; 96-well plate, 37° C., 10 h): 12.5 µg/mL | MIC against P. aeruginosa (Pseudomonas aeruginosa; 96-well plate, 37° C., 10 h): 12.5 µg/mL | MIC against P. mirabilis (Proteus mirabilis; 96-well plate, 37° C., 10 h): 12.5 µg/mL | MIC against A. hydrophila (Aeromonas hydrophila; 96-well plate, 37° C., 10 h): 12.5 µg/mL | MIC against E. cloacae (Enterobacter cloacae; 96-well plate, 37° C., 10 h): 12.5 µg/mL

PRT1373 (STRSCPGGCRGRGQCLDGRCVCEDGYSGEDC; listed as Homo sapiens)
MIC against C. diversus (Citrobacter diversus; [11]): 50 µg/mL | MIC against M. catarrhalis (Moraxella catarrhalis; [12]): 12.5 µg/mL | MIC against P. vulgaris (Proteus vulgaris; [13]): 50 µg/mL | MIC against E. coli BL21 (E. coli BL21; [14]): 12.5 µg/mL | MIC (E. coli DH5α): 25 µg/mL | MIC against S. marcescens (Serratia marcescens; [15]): 12.5 µg/mL | MIC against K. pneumonia (Klebsiella pneumonia; [16]): 12.5 µg/mL | MIC against P. aeruginosa (Pseudomonas aeruginosa; [17]): 12.5 µg/mL | MIC against P. mirabilis (Proteus mirabilis; [18]): 25 µg/mL | MIC against A. hydrophila (Aeromonas hydrophila; [19]): 12.5 µg/mL | MIC against E. cloacae (Enterobacter cloacae; [20]): 12.5 µg/mL

PRT1438 (PVKSCSEPRCFNGGTCQQALYFSDFVCQCPEGFAGKCCE; listed as Homo sapiens)
MIC against C. diversus (Citrobacter diversus; [11]): 50 µg/mL | MIC against M. catarrhalis (Moraxella catarrhalis; [12]): 12.5 µg/mL | MIC against P. vulgaris (Proteus vulgaris; [13]): 25 µg/mL | MIC against E. coli BL21 (E. coli BL21; [14]): 25 µg/mL | MIC (E. coli DH5α): 12.5 µg/mL | MIC against S. marcescens (Serratia marcescens; [15]): 12.5 µg/mL | MIC against K. pneumonia (Klebsiella pneumonia; [16]): 25 µg/mL | MIC against P. aeruginosa (Pseudomonas aeruginosa; [17]): 50 µg/mL | MIC against P. mirabilis (Proteus mirabilis; [18]): 50 µg/mL | MIC against A. hydrophila (Aeromonas hydrophila; [19]): 25 µg/mL | MIC against E. cloacae (Enterobacter cloacae; [20]): 12.5 µg/mL

PRT79 (LPDPCDSNPCPANSYCSNDWDSYSCSCDPGYYGDNC; listed as Homo sapiens)
MIC (μg/mL) C. diversus (Citrobacter diversus; [1]): 12.5 µg/mL | MIC (μg/mL) M. catarrhalis (Moraxella catarrhalis; [2]): 12.5 µg/mL | MIC (μg/mL) P. vulgaris (Proteus vulgaris; [3]): 12.5 µg/mL | MIC (μg/mL) E. coli BL21 (E. coli BL21; [4]): 25 µg/mL | MIC (E. coli DH5α): 50 µg/mL | MIC (μg/mL) S. marcescens (Serratia marcescens; [5]): 50 µg/mL | MIC (μg/mL) K. pneumonia (Klebsiella pneumonia; [6]): 25 µg/mL | MIC (μg/mL) P. aeruginosa (Pseudomonas aeruginosa; [7]): 12.5 µg/mL | MIC (μg/mL) P. mirabilis (Proteus mirabilis; [8]): 50 µg/mL | MIC (μg/mL) A. hydrophila (Aeromonas hydrophila; [9]): 25 µg/mL | MIC (μg/mL) E. cloacae (Enterobacter cloacae; [10]): 12.5 µg/mL

PRT1399 (ARVQCPDQCSGHGTYLPDTGLCSCDPNWMGPDCS; listed as Homo sapiens)
MIC against C. diversus (Citrobacter diversus; [11]): 25 µg/mL | MIC against M. catarrhalis (Moraxella catarrhalis; [12]): 12.5 µg/mL | MIC against P. vulgaris (Proteus vulgaris; [13]): 12.5 µg/mL | MIC against E. coli BL21 (E. coli BL21; [14]): 12.5 µg/mL | MIC (E. coli DH5α): 12.5 µg/mL | MIC against S. marcescens (Serratia marcescens; [15]): 25 µg/mL | MIC against K. pneumonia (Klebsiella pneumonia; [16]): 12.5 µg/mL | MIC against P. aeruginosa (Pseudomonas aeruginosa; [17]): 12.5 µg/mL | MIC against P. mirabilis (Proteus mirabilis; [18]): 25 µg/mL | MIC against A. hydrophila (Aeromonas hydrophila; [19]): 12.5 µg/mL | MIC against E. cloacae (Enterobacter cloacae; [20]): 25 µg/mL

PRT1192 (DIDECASNPCAAGGTCVDQVDGFECICPEQWVGATCQ; listed as Homo sapiens)
MIC C. diversus (Citrobacter diversus; [21]): 50 µg/mL | MIC M. catarrhalis (Moraxella catarrhalis; [21]): 25 µg/mL | MIC P. vulgaris (Proteus vulgaris; [21]): 50 µg/mL | MIC E. coli BL21 (E. coli BL21; [21]): 12.5 µg/mL | MIC (E. coli DH5α): 25 µg/mL | MIC S. marcescens (Serratia marcescens; [21]): 25 µg/mL | MIC K. pneumonia (Klebsiella pneumonia; [21]): 50 µg/mL | MIC P. aeruginosa (Pseudomonas aeruginosa; [21]): 25 µg/mL | MIC P. mirabilis (Proteus mirabilis; [21]): 12.5 µg/mL | MIC A. hydrophila (Aeromonas hydrophila; [21]): 12.5 µg/mL | MIC E. cloacae (Enterobacter cloacae; [21]): 25 µg/mL

PRT596 (CDCDPRTSQSSHCDQLTGQCPCKLGYGGKRCSECQENYYGDPPGRCIP; listed as Homo sapiens)
MIC C. diversus (Citrobacter diversus; 96-well plate, 37° C., 10 h): 50 µg/mL | MIC M. catarrhalis (Moraxella catarrhalis; 96-well plate, 37° C., 10 h): 25 µg/mL | MIC P. vulgaris (Proteus vulgaris; 96-well plate, 37° C., 10 h): 25 µg/mL | MIC E. coli BL21 (E. coli BL21; 96-well plate, 37° C., 10 h): 25 µg/mL | MIC (E. coli DH5α): 12.5 µg/mL | MIC S. marcescens (Serratia marcescens; 96-well plate, 37° C., 10 h): 50 µg/mL | MIC K. pneumonia (Klebsiella pneumonia; 96-well plate, 37° C., 10 h): 25 µg/mL | MIC P. aeruginosa (Pseudomonas aeruginosa; 96-well plate, 37° C., 10 h): 50 µg/mL | MIC P. mirabilis (Proteus mirabilis; 96-well plate, 37° C., 10 h): 12.5 µg/mL | MIC A. hydrophila (Aeromonas hydrophila; 96-well plate, 37° C., 10 h): 25 µg/mL | MIC E. cloacae (Enterobacter cloacae; 96-well plate, 37° C., 10 h): 12.5 µg/mL

PRT433 (DIDECRYGYCQQLCANVPGSYSCTCNPGFTLNEDGRSCQ; listed as Homo sapiens)
MIC (Citrobacter diversus; 10 h cultivation at 37° C.): 50 µg/mL | MIC (Moraxella catarrhalis; 10 h cultivation at 37° C.): 12.5 µg/mL | MIC (Proteus vulgaris; 10 h cultivation at 37° C.): 12.5 µg/mL | MIC (E. coli BL21; [14]): 25 µg/mL | MIC (E. coli DH5α): 12.5 µg/mL | MIC (Serratia marcescens; 10 h cultivation at 37° C.): 50 µg/mL | MIC (Klebsiella pneumonia; 10 h cultivation at 37° C.): 12.5 µg/mL | MIC (Pseudomonas aeruginosa; 10 h cultivation at 37° C.): 12.5 µg/mL | MIC (Proteus mirabilis; 10 h cultivation at 37° C.): 50 µg/mL | MIC (Aeromonas hydrophila; 10 h cultivation at 37° C.): 12.5 µg/mL | MIC (Enterobacter cloacae; 10 h cultivation at 37° C.): 50 µg/mL

PRT398 (DDNECHAQPDLCVNGRCVNTAGSFRCDCDEGFQPSPTLTECH; listed as Homo sapiens)
MIC (Citrobacter diversus; 10 h cultivation at 37° C.): 50 µg/mL | MIC (Moraxella catarrhalis; 10 h cultivation at 37° C.): 12.5 µg/mL | MIC (Proteus vulgaris; 10 h cultivation at 37° C.): 12.5 µg/mL | MIC (E. coli BL21; [14]): 12.5 µg/mL | MIC (E. coli DH5α): 50 µg/mL | MIC (Serratia marcescens; 10 h cultivation at 37° C.): 100 µg/mL | MIC (Klebsiella pneumonia; 10 h cultivation at 37° C.): 12.5 µg/mL | MIC (Pseudomonas aeruginosa; 10 h cultivation at 37° C.): 50 µg/mL | MIC (Proteus mirabilis; 10 h cultivation at 37° C.): 12.5 µg/mL | MIC (Aeromonas hydrophila; 10 h cultivation at 37° C.): 12.5 µg/mL | MIC (Enterobacter cloacae; 10 h cultivation at 37° C.): 50 µg/mL
